# Measured values taken from article PMC1976805, “Preclinical pharmacokinetics of benznidazole” (British Journal of Cancer, 1984).
# Where two headings read alike, the source gives them in different places.
# Experiments:
# plasma proteins [1] = test: In vivo plasma protein binding in dogs (plasma ultrafiltrate); conditions: dog; for fraction unbound: plasma
# Excerpt: (§1) Br. J. Cancer (1984), 50, 291-303 Preclinical pharmacokinetics of benznidazole P. Workman', R.A.S. White2, M.I. Walton', L.N. Owen2* & P.R. Twentyman' 1MRC Clinical Oncology and Radiotherapeutics Unit, MRC Centre, Hills Road, Cambridge CB2 2QH, and 2Department of Clinical Veterinary Medicine, University of Cambridge, Madingley Road, Cambridge CB3 OES, UK. […] We have investigated the detailed pharmacokinetics of benznidazole in mice, dogs and sheep to provide a data base for the estimation of doses required for chemosensitization in man. Pharmacokinetic behaviour was linear except at high doses in mice. Absorption was fairly rapid and bioavailability was complete following both i.p. administration in mice and oral administration in dogs. Elimination t4 values were longer than for MISO, being 90 min in mice, 4-5 h in sheep and 9-11 h in dogs. At doses giving linear kinetics, peak whole plasma concentrations per administered mgkg-1 were 0.75 jigml-1 for the i.p. route in mice and 1.8jugmlP' for the oral route in dogs. Though between 39 and 59% of plasma benznidazole was bound to protein, tissue penetration was generally good. Tissue/whole plasma ratios ranged from 59-99% for transplantable mouse tumours and from 14-70% for spontaneous dog neoplasms. Nervous tissue penetration was similar to that in tumours: brain/whole plasma ratios averaged between 61 and 76% in mice and 42% in dogs, while peripheral nerve/whole plasma ratios in dogs averaged 74%. Mean liver/whole plasma ratios were 42% and 71% in BALB/c and C3H/He mouse strains respectively. Only -5% of the administered dose was excreted unchanged in the urine, indicating the likelihood of extensive metabolism. […] Enhancement of CCNU response is likely to require circulating benznidazole concentrations of 10-30 pgml-1 and we predict that these will be obtained with oral doses of 6-20 mgkg- 1 in man. […] This enhancement, or chemosensitization, is usually greater than that seen in dose-limiting normal tissues, resulting in an improved therapeutic index. Because of the relatively high doses of MISO usually required for chemosensitization in mice (see above refs), and also because of its neurotoxicity in man (Dische et al., 1977), we have been interested in finding an improved chemosensitizer. […] The lipophilic ana- logue benznidazole (N-benzyl-(2-nitroimidazolyl) acetamide, Ro 07-1051; Radanil; Roche), the structure of which is shown in Figure 1, was selected for detailed study because of its ability to *Present address: Animal Health Trust, Small Animals Centre, Lanwades Park, Kennett, Newmarket, Suffolk CB8 7PN, UK. Correspondence: P. Workman. […] These findings have been confirmed independently by Siemann et al. (1983). Although benznidazole is used quite widely in South America to treat patients with the trypanosomal infection Chagas' disease or with mucotaneous Leishmaniasis (Barclay et al., 1978; Cerisola et al., 1978; Coura et al., 1978; Fava et al., 1978), apart from our preliminary studies (White et al., 1982) the only published data on its pharmaco- kinetics are for human plasma concentrations measured by polarography (Raaflub & Ziegler, 1979; Raaflub, 1980). Here we describe the pharmacokinetics of benznidazole in the mouse, sheep and dog, as determined by high-performance liquid chromatography (HPLC). […] The Macmillan Press Ltd., 1984 292 P. WORKMAN et al. particularly on plasma and tumour concentrations, have been used as a basis for the estimation of the benznidazole doses required in a Phase I trial of benznidazole plus CCNU, at present ongoing in our Unit. Materials and methods Animals and tumours Adult inbred male BALB/c mice were obtained from OLAC (Southern) Ltd. (Bicester, UK) and adult inbred C3H/He mice of both sexes from OLAC and our own breeding colony. Mice were housed in plastic cages on sawdust bedding made from soft white woods, and allowed laboratory chow and water ad lib. They were used at 20-35 g body wt.
# plasma proteins [2] = test: Binding to plasma proteins in vitro, mouse plasma (ultrafiltrate); assay type: in vitro ADME
# Excerpt: Br. J. Cancer (1984), 50, 291-303 Preclinical pharmacokinetics of benznidazole P. Workman', R.A.S. White2, M.I. Walton', L.N. Owen2* & P.R. Twentyman' 1MRC Clinical Oncology and Radiotherapeutics Unit, MRC Centre, Hills Road, Cambridge CB2 2QH, and 2Department of Clinical Veterinary Medicine, University of Cambridge, Madingley Road, Cambridge CB3 OES, UK. […] We have investigated the detailed pharmacokinetics of benznidazole in mice, dogs and sheep to provide a data base for the estimation of doses required for chemosensitization in man. Pharmacokinetic behaviour was linear except at high doses in mice. Absorption was fairly rapid and bioavailability was complete following both i.p. administration in mice and oral administration in dogs. Elimination t4 values were longer than for MISO, being 90 min in mice, 4-5 h in sheep and 9-11 h in dogs. At doses giving linear kinetics, peak whole plasma concentrations per administered mgkg-1 were 0.75 jigml-1 for the i.p. route in mice and 1.8jugmlP' for the oral route in dogs. Though between 39 and 59% of plasma benznidazole was bound to protein, tissue penetration was generally good. Tissue/whole plasma ratios ranged from 59-99% for transplantable mouse tumours and from 14-70% for spontaneous dog neoplasms. Nervous tissue penetration was similar to that in tumours: brain/whole plasma ratios averaged between 61 and 76% in mice and 42% in dogs, while peripheral nerve/whole plasma ratios in dogs averaged 74%. […] Although benznidazole is used quite widely in South America to treat patients with the trypanosomal infection Chagas' disease or with mucotaneous Leishmaniasis (Barclay et al., 1978; Cerisola et al., 1978; Coura et al., 1978; Fava et al., 1978), apart from our preliminary studies (White et al., 1982) the only published data on its pharmaco- kinetics are for human plasma concentrations measured by polarography (Raaflub & Ziegler, 1979; Raaflub, 1980). Here we describe the pharmacokinetics of benznidazole in the mouse, sheep and dog, as determined by high-performance liquid chromatography (HPLC). […]
# [3] = Penetration into brain and peripheral nerve in dogs; assay type: in vivo, dog; conditions: 25 mg kg-1 oral; for Kp: collie crossbred, 25 mg kg-1, two crossbred dogs; for Kp / Kp at 4 h / Kp at 1 h / Kp at 2 h / Kp at 3 h: dog, po
# Excerpt: as §1
# [4] = Plasma pharmacokinetics in man (literature); assay type: in vivo; conditions: oral doses of 6-20 mg kg-1, extrapolated from dog and literature human data
# Aqueous solubility = assay type: physicochemical
# bovine serum albumin = tested on: bovine serum albumin; set-up: method as in Clarke & Wardman, cited in Watts et al., 1980; conditions: ref Clarke & Wardman, cited in Watts et al., 1980; cited from earlier work
smiles,measurement,setting,value
"O=C(Cn1ccnc1[N+](=O)[O-])NCc1ccccc1 [benznidazole, N-benzyl-(2-nitroimidazolyl) acetamide]",fraction unbound,"plasma proteins [1]; beagle, po, 50 mg kg-1, dog E, 50 mg kg-1 oral, full time course, read-out: protein binding (mean+s.e., n=8) (converted)",0.45
same,fraction unbound,"plasma proteins [1]; beagle, po, 50 mg kg-1, dog F, 50 mg kg-1 oral, full time course, read-out: protein binding (mean+s.e., n=8) (converted)",0.48
same,fraction unbound,"plasma proteins [1]; collie crossbred, beagle, iv, dogs, apart from the two i.v. time courses, read-out: in vivo protein binding, range",0.41 to 0.48
same,fraction unbound,"plasma proteins [1]; collie crossbred, iv, 5 mg kg-1, dog C, 5 mg kg-1 i.v., full time course, read-out: protein binding (mean+s.e., n=8) (converted)",0.28
same,fraction unbound,"plasma proteins [1]; collie crossbred, iv, 5 mg kg-1, dog D, 5 mg kg-1 i.v., full time course, read-out: protein binding (mean+s.e., n=8) (converted)",0.26
same,fraction unbound,"plasma proteins [1]; collie crossbred, po, 25 mg kg-1, dog A, 25 mg kg-1 oral, mean of 4 and 5 h values, read-out: protein binding (converted)",0.47
same,fraction unbound,"plasma proteins [1]; collie crossbred, po, 25 mg kg-1, dog B, 25 mg kg-1 oral, mean of 4 and 5 h values, read-out: protein binding (converted)",0.41
same,fraction unbound,"plasma proteins [1]; collie crossbred, po, 25 mg kg-1, dog C, 25 mg kg-1 oral, mean of 4 and 5 h values, read-out: protein binding (converted)",0.45
same,fraction unbound,"plasma proteins [1]; collie crossbred, po, 25 mg kg-1, dog D, 25 mg kg-1 oral, mean of 4 and 5 h values, read-out: protein binding (converted)",0.47
same,binding to plasma proteins,plasma proteins [1]; discussion summary,59%
same,extent of binding to plasma proteins in vitro,plasma proteins [2]; BALB/c mice,38%
same,extent of binding to plasma proteins in vitro,plasma proteins [2]; C3H/He mice,39%
same,binding to plasma proteins,"plasma proteins [2]; mouse, discussion summary",39%
same,Kp,"[3]; brain, 1-4 h, read-out: brain/whole plasma ratio, overall mean (s.e., n=8)",0.42
same,Kp,"[3]; peripheral nerve, 1-4 h, read-out: peripheral nerve/whole plasma ratio, mean (s.e., n=7)",0.74
same,brain concentration,"[3]; dog G, 1 h",1.1 µg/g
same,peripheral nerve concentration,"[3]; dog G, 1 h",1.3 µg/g
same,plasma concentration,"[3]; dog G, 1 h",3100 ng/mL
same,brain concentration,"[3]; dog G, 2 h",1.5 µg/g
same,peripheral nerve concentration,"[3]; dog G, 2 h",3.4 µg/g
same,plasma concentration,"[3]; dog G, 2 h",3800 ng/mL
same,brain concentration,"[3]; dog G, 3 h",2.1 µg/g
same,plasma concentration,"[3]; dog G, 3 h",4300 ng/mL
same,brain concentration,"[3]; dog G, 4 h",1.1 µg/g
same,peripheral nerve concentration,"[3]; dog G, 4 h",4.0 µg/g
same,plasma concentration,"[3]; dog G, 4 h",4100 ng/mL
same,brain concentration,"[3]; dog H, 1 h",11.6 µg/g
same,peripheral nerve concentration,"[3]; dog H, 1 h",14.0 µg/g
same,plasma concentration,"[3]; dog H, 1 h",23100 ng/mL
same,brain concentration,"[3]; dog H, 2 h",10.0 µg/g
same,peripheral nerve concentration,"[3]; dog H, 2 h",15.5 µg/g
same,plasma concentration,"[3]; dog H, 2 h",22200 ng/mL
same,brain concentration,"[3]; dog H, 3 h",8.5 µg/g
same,peripheral nerve concentration,"[3]; dog H, 3 h",14.7 µg/g
same,plasma concentration,"[3]; dog H, 3 h",18700 ng/mL
same,brain concentration,"[3]; dog H, 4 h",7.9 µg/g
same,peripheral nerve concentration,"[3]; dog H, 4 h",15.6 µg/g
same,plasma concentration,"[3]; dog H, 4 h",18500 ng/mL
same,Kp at 4 h,"[3]; brain, 25 mg kg-1, dog H, 4 h, read-out: brain/plasma ratio",0.43
same,Kp at 1 h,"[3]; brain/plasma, 25 mg kg-1, dog G, 1 h, read-out: brain/plasma ratio",0.35
same,Kp at 2 h,"[3]; brain/plasma, 25 mg kg-1, dog G, 2 h, read-out: brain/plasma ratio",0.39
same,Kp at 3 h,"[3]; brain/plasma, 25 mg kg-1, dog G, 3 h, read-out: brain/plasma ratio",0.49
same,Kp at 4 h,"[3]; brain/plasma, 25 mg kg-1, dog G, 4 h, read-out: brain/plasma ratio",0.26
same,Kp at 1 h,"[3]; brain/plasma, 25 mg kg-1, dog H, 1 h, read-out: brain/plasma ratio",0.5
same,Kp at 2 h,"[3]; brain/plasma, 25 mg kg-1, dog H, 2 h, read-out: brain/plasma ratio",0.45
same,Kp at 3 h,"[3]; brain/plasma, 25 mg kg-1, dog H, 3 h, read-out: brain/plasma ratio",0.45
same,Kp at 3 h,"[3]; peripheral nerve, 25 mg kg-1, dog H, 3 h, read-out: peripheral nerve/plasma ratio",0.78
same,Kp at 4 h,"[3]; peripheral nerve, 25 mg kg-1, dog H, 4 h, read-out: peripheral nerve/plasma ratio",0.84
same,Kp at 1 h,"[3]; peripheral nerve/plasma, 25 mg kg-1, dog G, 1 h, read-out: peripheral nerve/plasma ratio",0.41
same,Kp at 2 h,"[3]; peripheral nerve/plasma, 25 mg kg-1, dog G, 2 h, read-out: peripheral nerve/plasma ratio",0.9
same,Kp at 4 h,"[3]; peripheral nerve/plasma, 25 mg kg-1, dog G, 4 h, read-out: peripheral nerve/plasma ratio",0.96
same,Kp at 1 h,"[3]; peripheral nerve/plasma, 25 mg kg-1, dog H, 1 h, read-out: peripheral nerve/plasma ratio",0.6
same,Kp at 2 h,"[3]; peripheral nerve/plasma, 25 mg kg-1, dog H, 2 h, read-out: peripheral nerve/plasma ratio",0.7
same,"brain/whole plasma ratio, overall mean (s.e., n=8)","[3]; two crossbred dogs, 1-4 h",42+3%
same,"peripheral nerve/whole plasma ratio, mean (s.e., n=7)","[3]; two crossbred dogs, 1-4 h",74+7%
same,predicted circulating (peak whole plasma) concentrations,[4],10-30 micrograms ml-1
same,aqueous solubility,Aqueous solubility,low aqueous solubility
same,binding,bovine serum albumin,46%
